Where a SMILES comes first, the peptide text is derived from it. Bridges are numbered along the chain shown (N, C = ends). [ ]: non-standard residue; d: D form. The star is where a group is joined. Threoninol(2S,3R) = C[C@@H](O)[C@H](CO)N*
Columns and labels:
[1] = target: T1, B2 bradykinin receptor (Homo sapiens, UniProt P30411); assay type: cell membranes, Membrane; conditions: chem-1; note: in other assays of this panel Not Active means under 50% inhibition at 10 µM
T1 sequence (P30411 whole entry): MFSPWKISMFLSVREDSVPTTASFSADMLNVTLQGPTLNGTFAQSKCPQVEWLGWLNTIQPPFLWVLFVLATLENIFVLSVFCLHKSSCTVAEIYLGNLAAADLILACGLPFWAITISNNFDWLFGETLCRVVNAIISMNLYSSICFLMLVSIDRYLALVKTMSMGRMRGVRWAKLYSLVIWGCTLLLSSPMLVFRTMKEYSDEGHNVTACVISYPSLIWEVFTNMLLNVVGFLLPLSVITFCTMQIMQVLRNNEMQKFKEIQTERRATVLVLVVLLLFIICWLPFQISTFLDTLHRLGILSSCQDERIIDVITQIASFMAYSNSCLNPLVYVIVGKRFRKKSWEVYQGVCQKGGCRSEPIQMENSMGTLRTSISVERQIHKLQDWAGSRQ

[2] = target: T2, C-X-C chemokine receptor type 1 (Homo sapiens, UniProt P25024); note: in other assays of this panel Not Active means under 50% inhibition at 10 µM
T2 sequence (P25024 whole entry): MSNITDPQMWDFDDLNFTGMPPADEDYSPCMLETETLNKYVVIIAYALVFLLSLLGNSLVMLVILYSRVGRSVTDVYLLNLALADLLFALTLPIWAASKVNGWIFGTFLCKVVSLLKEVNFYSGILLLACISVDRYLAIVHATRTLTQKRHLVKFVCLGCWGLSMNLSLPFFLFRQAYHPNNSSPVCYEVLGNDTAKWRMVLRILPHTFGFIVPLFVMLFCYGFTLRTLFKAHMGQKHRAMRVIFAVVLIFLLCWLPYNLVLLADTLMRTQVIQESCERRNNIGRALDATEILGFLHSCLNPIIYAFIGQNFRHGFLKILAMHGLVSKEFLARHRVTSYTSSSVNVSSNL

[3] = target: D(3) dopamine receptor (Homo sapiens, UniProt P35462); test: DRUGMATRIX: Dopamine D3 radioligand binding (ligand: [3H] Spiperone); assay type: cell membranes, CHO, Membrane; conditions: cho
D(3) dopamine receptor, sequence (P35462 whole entry): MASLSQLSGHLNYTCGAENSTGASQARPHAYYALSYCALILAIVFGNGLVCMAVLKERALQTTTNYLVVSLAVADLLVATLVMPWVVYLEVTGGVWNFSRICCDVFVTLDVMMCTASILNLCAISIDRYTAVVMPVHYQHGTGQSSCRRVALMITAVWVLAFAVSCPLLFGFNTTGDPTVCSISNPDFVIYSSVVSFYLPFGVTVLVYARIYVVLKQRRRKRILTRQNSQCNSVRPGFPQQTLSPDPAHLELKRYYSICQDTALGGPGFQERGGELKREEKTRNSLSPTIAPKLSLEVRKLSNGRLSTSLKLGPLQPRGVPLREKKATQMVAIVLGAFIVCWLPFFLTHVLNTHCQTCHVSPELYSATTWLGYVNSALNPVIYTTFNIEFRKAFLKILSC

[4] = target: T3, D(4) dopamine receptor (Homo sapiens, UniProt P21917); test: DRUGMATRIX: Dopamine D4.2 radioligand binding (ligand: [3H] Spiperone); assay type: cell membranes, Membrane; conditions: cho-k1; Not Active = under 50% inhibition at 10 µM
T3 sequence (P21917 whole entry): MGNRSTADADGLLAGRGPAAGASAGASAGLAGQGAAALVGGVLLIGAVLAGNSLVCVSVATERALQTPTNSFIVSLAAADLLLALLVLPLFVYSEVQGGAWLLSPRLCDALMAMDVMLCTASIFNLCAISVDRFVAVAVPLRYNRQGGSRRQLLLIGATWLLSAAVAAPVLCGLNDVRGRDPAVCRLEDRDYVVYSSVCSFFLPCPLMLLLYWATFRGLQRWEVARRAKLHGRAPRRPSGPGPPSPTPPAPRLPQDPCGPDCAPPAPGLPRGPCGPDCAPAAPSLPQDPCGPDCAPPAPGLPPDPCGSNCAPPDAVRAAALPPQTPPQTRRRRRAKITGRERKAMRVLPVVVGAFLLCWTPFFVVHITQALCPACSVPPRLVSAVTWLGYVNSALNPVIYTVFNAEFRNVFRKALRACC

[5] = DRUGMATRIX: Glutamate, NMDA, Phencyclidine radioligand binding (ligand: [3H] TCP); assay type: cell membranes, Rattus norvegicus, Wistar, Cerebral cortex, Membrane; conditions: Not Active = under 50% inhibition at 10 µM
[6] = target: Beta-2 adrenergic receptor (Homo sapiens, UniProt P07550); test: DRUGMATRIX: Adrenergic beta2 radioligand binding (ligand: [3H] CGP-12177); assay type: cell membranes, Membrane; conditions: cho; Not Active = under 50% inhibition at 10 µM
Beta-2 adrenergic receptor, sequence (P07550 whole entry): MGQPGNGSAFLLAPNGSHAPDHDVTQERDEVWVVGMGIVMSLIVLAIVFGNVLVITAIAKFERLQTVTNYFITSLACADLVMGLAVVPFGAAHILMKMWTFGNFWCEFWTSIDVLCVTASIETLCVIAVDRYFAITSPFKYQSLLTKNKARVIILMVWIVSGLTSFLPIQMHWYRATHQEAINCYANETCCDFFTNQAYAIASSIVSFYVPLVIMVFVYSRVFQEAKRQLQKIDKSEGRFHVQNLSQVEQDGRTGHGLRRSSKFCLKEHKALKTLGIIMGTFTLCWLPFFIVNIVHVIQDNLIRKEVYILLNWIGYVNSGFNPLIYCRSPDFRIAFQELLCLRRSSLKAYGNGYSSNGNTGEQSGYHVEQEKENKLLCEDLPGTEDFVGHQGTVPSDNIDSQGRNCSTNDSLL

[7] = DRUGMATRIX: beta-Lactamase enzyme inhibition (substrate: Nitrocefin); parameters: species or system Bacillus cereus; conditions: Not Active = under 50% inhibition at 10 µM

COc1ccccc1C(=O)N1CCC(Cc2ccccc2)CC1
Not Active: IC50 [1] | IC50 [2] | IC50 [3] | IC50 [4] | IC50 [5] | Ki [5] | IC50 [6] | IC50 [7] | Ki [7]

Cc1ccccc1C(=O)N1CCC(Cc2ccccc2)CC1
Not Active: IC50 [1] | IC50 [2] | IC50 [3] | IC50 [4] | IC50 [5] | Ki [5] | IC50 [6] | IC50 [7] | Ki [7]

O=C1CC[C@H](N2C(=O)c3ccccc3C2=O)C(=O)N1
Not Active: IC50 [1] | IC50 [2] | IC50 [3] | IC50 [4] | IC50 [5] | Ki [5] | IC50 [6] | IC50 [7] | Ki [7]

N=C(Nc1ccccc1)Nc1ccccc1
Not Active: IC50 [1] | IC50 [2] | IC50 [3] | IC50 [4] | IC50 [5] | Ki [5] | IC50 [6] | IC50 [7] | Ki [7]

C[C@@H](O)[C@H](CO)NC(=O)[C@@H]1CSSC[C@H](NC(=O)[C@H](N)Cc2ccccc2)C(=O)N[C@@H](Cc2ccccc2)C(=O)N[C@H](Cc2c[nH]c3ccccc23)C(=O)N[C@@H](CCCCN)C(=O)N[C@@H]([C@@H](C)O)C(=O)N1 (H-[dF]CF[dW]KTC-{Threoninol(2S,3R)}; disulfide 2-7)
Not Active: IC50 [1] | IC50 [2] | IC50 [3] | IC50 [4] | IC50 [5] | Ki [5] | IC50 [6] | IC50 [7] | Ki [7]

S=C=Nc1cccc2ccccc12 [1-NAPHTHYLISOTHIOCYANATE]
Not Active: IC50 [1] | IC50 [2] | IC50 [3] | IC50 [4] | IC50 [5] | Ki [5] | IC50 [6] | IC50 [7] | Ki [7]

C[C@](O)(CS(=O)(=O)c1ccc(F)cc1)C(=O)Nc1ccc(C#N)c(C(F)(F)F)c1 [(R)-BICALUTAMIDE]
Not Active: IC50 [1] | IC50 [2] | IC50 [3] | IC50 [4] | IC50 [5] | Ki [5] | IC50 [6] | IC50 [7] | Ki [7]

CCCC(=O)Nc1ccc(OCC(O)CNC(C)C)c(C(C)=O)c1 (configuration not stated) [ACEBUTOLOL]
Not Active: IC50 [1] | IC50 [2] | IC50 [3] | IC50 [4] | IC50 [5] | Ki [5] | IC50 [7] | Ki [7]

CC(=O)Nc1ccc(O)cc1 [ACETAMINOPHEN]
Not Active: IC50 [1] | IC50 [2] | IC50 [3] | IC50 [4] | IC50 [5] | Ki [5] | IC50 [6] | IC50 [7] | Ki [7]

COc1cc2c(c3oc(=O)c4c(c13)CCC4=O)[C@@H]1C=CO[C@@H]1O2 [AFLATOXIN]
Not Active: IC50 [1] | Ki [1] | IC50 [2] | Ki [2] | IC50 [3] | Ki [3] | IC50 [4] | Ki [4] | IC50 [5] | Ki [5] | IC50 [6] | Ki [6] | IC50 [7] | Ki [7]

N=C(N)NC(=O)c1nc(Cl)c(N)nc1N [AMILORIDE]
Not Active: IC50 [1] | IC50 [2] | IC50 [3] | IC50 [4] | IC50 [5] | Ki [5] | IC50 [6] | IC50 [7] | Ki [7]

Cc1cc(=O)n(-c2ccccc2)n1C [ANTIPYRINE]
Not Active: IC50 [1] | IC50 [2] | IC50 [3] | IC50 [4] | IC50 [5] | Ki [5] | IC50 [6] | IC50 [7] | Ki [7]

CN1C(=O)COc2c(C(=O)NC3CN4CCC3CC4)cc(Cl)cc21 (configuration not stated) [AZASETRON]
Not Active: IC50 [1] | IC50 [2] | IC50 [3] | IC50 [4] | IC50 [5] | Ki [5] | IC50 [6] | IC50 [7] | Ki [7]

C[C@H]1C[C@H]2[C@@H]3CCC4=CC(=O)C=C[C@]4(C)[C@@]3(Cl)[C@@H](O)C[C@]2(C)[C@@]1(O)C(=O)CO [BECLOMETHASONE]
Not Active: IC50 [1] | IC50 [2] | IC50 [3] | IC50 [4] | IC50 [5] | Ki [5] | IC50 [6] | IC50 [7] | Ki [7]

CCOC(=O)[C@H](CCc1ccccc1)N[C@H]1CCc2ccccc2N(CC(=O)O)C1=O [BENAZEPRIL]
Not Active: IC50 [1] | IC50 [2] | IC50 [3] | IC50 [4] | IC50 [5] | Ki [5] | IC50 [6] | IC50 [7] | Ki [7]

Nc1c(CC(=O)O)cccc1C(=O)c1ccc(Br)cc1 [BROMFENAC]
Not Active: IC50 [1] | IC50 [2] | IC50 [3] | IC50 [4] | IC50 [5] | Ki [5] | IC50 [6] | IC50 [7] | Ki [7]

CCCCN1CCCCC1C(=O)Nc1c(C)cccc1C.Cl (configuration not stated) [BUPIVACAINE HYDROCHLORIDE]
Not Active: IC50 [1] | IC50 [2] | IC50 [3] | IC50 [4] | IC50 [5] | Ki [5] | IC50 [6] | IC50 [7] | Ki [7]
